For this experiment, the target named is T1, MscCAγ (Mammaliicoccus sciuri, UniProt A0AB37HNM1).
T1 construct: gene OWO77_11715
T1 sequence (A0AB37HNM1 1-169): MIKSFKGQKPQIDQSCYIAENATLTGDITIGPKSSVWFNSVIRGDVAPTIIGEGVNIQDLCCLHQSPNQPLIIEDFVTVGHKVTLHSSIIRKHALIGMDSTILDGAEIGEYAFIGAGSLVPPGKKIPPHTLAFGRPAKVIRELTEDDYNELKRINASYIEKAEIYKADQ
Description: stopped-flow CO2 hydration assay. The following applies: read-out: KI (mM)^a / McsCAγ. It counts as biochemical.
As to `OB(O)c1ccccc1` [phenylboronic acid], the Ki is 0.9 mM.
Take `NS(=O)(=O)O` [sulphamic acid]: the Ki is 25.2 mM.
As for `O=S(=O)(O)NS(=O)(=O)O` [iminodisulfonate], the Ki stood at 13.7 mM.
`NS(N)(=O)=O` [sulfamide]: the Ki stood at 49.2 mM.
For `CCN(CC)C(=S)S` [N,N-diethyldithiocarbamate], the Ki is 0.5 mM.
With `[O]=[Re](=[O])(=[O])[OH]` [perrhenate], the Ki was determined as 4.4 mM.
Take `O=P(O)(O)OP(=O)(O)O` [pyrophosphate]: the Ki came out at 0.8 mM.
Regarding `N#C[SeH]` [selenocyanide], the Ki came out at 32.5 mM.
As to `S=C(S)S` [trithiocarbonate], the Ki came to 0.07 mM.

The values above are taken from paper PMC9891171, “Inhibition studies with simple and complex (in)organic anions of the γ-carbonic anhydrase from Mammaliicoccus (Staphylococcus) sciuri, MscCAγ” (Journal of Enzyme Inhibition and Medicinal Chemistry, 2023).
